{
  "source": "patent EP4671240A1",
  "about": "“SALT CONTAINING AROMATIC RING DERIVATIVE ANTAGONIST, PREPARATION METHOD THEREFOR, AND APPLICATION THEREOF” (Jiangsu Hansoh Pharmaceutical Group Co., Ltd., priority 2023, dated 2024)",
  "key": {"[1]": {"assay": "Liver microsomal metabolism stability assay (dog)", "type": "in vitro ADME", "conditions": "compound 1 µM; for half-life at 1 µM: dog liver microsomes 0.5 mg/mL, NADPH/UDPGA, read-out: Dog t1/2; for Dog Remaining rate: dog liver microsomes, 60 min", "description": "(§1) The objective of this experiment was to detect the stability of the example compounds in liver microsomes of rats, dogs and humans.\n(§2) Formulation of compound working solution: compound stock solution was added to phosphate buffer to a final concentration of 20 µM.\n(§3) Dilution was performed with 100 mM phosphate buffer to a final concentration of 0.625 mg/mL.\n(§4) NADPH (reduced nicotinamide adenine dinucleotide phosphate) and UDPGA (uridine diphosphate glucuronic acid) were weighed, and 100 mM phosphate buffer was added to a final concentration of 20 mM.\n(§5) 1 mg of Alamethicin was weighed, and 200 µL of DMSO was added to formulate a 5 mg/mL solution. Then dilution was performed with phosphate buffer to a final concentration of 50 µg/mL.\n(§6) Stop solution: cold acetonitrile containing 100 ng/mL labetalol hydrochloride and 400 ng/mL tolbutamide as internal standards.\n(§7) 400 µL of formulated liver microsomes, 25 µL of compound working solution and 25 µL of Alamethicin were added in sequence to a 96-well plate, and the mixture was pre-incubated at 37°C for 10 min. Then 50 µL of formulated NADPH/UDPGA was added to start the reaction and the mixture was incubated at 37°C. The total volume of the reaction system was 500 µL. The final contents of each component are as follows:\n(§8) • Instrument: Shimadzu LC-30 AD; • Chromatographic column: XBridge® C18 (50*4.6 mm, 5 µm particle size); • Mobile phase: A: 0.1% formic acid solution, B: methanol • Elution gradient: 0.2-1.6 min 5% A to 95% A, 3.0-3.1 min 95% A to 5% A • Run time: 4.0 min.\n(§9) • Instrument: API5500 liquid chromatography-mass spectrometer, AB Sciex; • Ion source: electrospray ionization source (ESI); • Drying gas: N2, temperature 500°C; • Electrospray voltage: 5000 V; • Detection mode: positive ion detection; • Scan mode: Multiple Reaction Monitoring (MRM) mode."}, "[2]": {"assay": "Liver microsomal metabolism stability assay (human)", "type": "in vitro ADME", "conditions": "compound 1 µM; for half-life at 1 µM: human liver microsomes 0.5 mg/mL, NADPH/UDPGA, read-out: Human t1/2; for Human Remaining rate: human liver microsomes, 60 min", "description": "as §1, §2, §3, §4, §5, §6, §7, §8, §9"}},
  "data": [
    {"smiles": "[2H]C([2H])(c1ccc(-c2ccccc2S(=O)(=O)Nc2noc(C)c2Cl)c(COCC)c1)N1C(=O)C2(CCCC2)N=C1CCCC", "note": "[Example 2, 4'-((2-Butyl-4-oxo-1,3-diazaspiro[4.4]non-1-en-3-yl)methyl-d2)-N-(4-chloro-5-methylisoxazol-3-yl)-2'-(ethoxymethyl)-[1,1'-biphenyl]-2-sulfonamide]", "values": [
      {"measurement": "half-life at 1 µM", "setting": "[1]", "result": 29.9, "unit": "min"},
      {"measurement": "Dog Remaining rate", "setting": "[1]", "result": 24.6, "unit": "%"},
      {"measurement": "half-life at 1 µM", "setting": "[2]", "result": 38.5, "unit": "min"},
      {"measurement": "Human Remaining rate", "setting": "[2]", "result": 33.0, "unit": "%"}
    ]},
    {"smiles": "CCCCC1=NC2(CCCC2)C(=O)N1Cc1ccc(-c2ccccc2S(=O)(=O)Nc2noc(C)c2Cl)c(COCC)c1", "note": "[Example 8, 2-[4-[(2-Butyl-4-oxo-1,3-diazaspiro[4.4]non-1-en-3-yl)methyl]-2-(ethoxymethyl)phenyl]-N-(4-chloro-5-methyl-isoxazol-3-yl)benzenesulfonamide]", "values": [
      {"measurement": "half-life at 1 µM", "setting": "[1]", "result": 28.5, "unit": "min"},
      {"measurement": "Dog Remaining rate", "setting": "[1]", "result": 23.6, "unit": "%"},
      {"measurement": "half-life at 1 µM", "setting": "[2]", "result": 36.5, "unit": "min"},
      {"measurement": "Human Remaining rate", "setting": "[2]", "result": 32.0, "unit": "%"}
    ]}
  ]
}
